Results reported in patent US20240228920A1, “Distilled Spirit with modified Alcohol Levels with or without a Functional Ingredient” (priority 2023, published 2024).

Experiments:
[1] = target: T1, MAO A (Homo sapiens, UniProt P21397); assay: MAO A inhibitory activity assay; type: biochemical; details: terpene at 0.5% (v/v) in Don Julio Añejo (40% ABV) minus in 40% ethanol
T1 sequence (P21397 1-527): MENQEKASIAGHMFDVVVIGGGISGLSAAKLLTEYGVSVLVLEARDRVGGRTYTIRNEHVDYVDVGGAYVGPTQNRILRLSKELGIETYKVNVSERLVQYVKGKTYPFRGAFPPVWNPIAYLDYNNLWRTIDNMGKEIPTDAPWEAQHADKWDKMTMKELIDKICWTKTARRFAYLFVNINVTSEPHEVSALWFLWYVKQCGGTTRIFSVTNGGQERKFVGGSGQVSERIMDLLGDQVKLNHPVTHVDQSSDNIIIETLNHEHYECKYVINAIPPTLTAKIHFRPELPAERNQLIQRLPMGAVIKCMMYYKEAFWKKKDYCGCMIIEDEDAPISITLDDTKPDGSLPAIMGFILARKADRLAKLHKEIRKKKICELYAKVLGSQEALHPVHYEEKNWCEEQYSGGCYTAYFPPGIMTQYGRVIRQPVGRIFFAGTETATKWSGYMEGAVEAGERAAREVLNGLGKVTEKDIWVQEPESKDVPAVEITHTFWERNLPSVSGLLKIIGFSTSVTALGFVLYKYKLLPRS
Protocol: (§1) U.S. […] The contents of this document are incorporated herein by reference, but briefly, methods that include reverse osmosis and low-pressure evaporation to provide retentates with significant concentrations of these inhibitors are described. In addition, details of assay methods for monoamine oxidase activity (and therefore inhibition thereof) and for ethanol content are provided. The effect of compounds on MAOI activity in tequila was evaluated in the experiment from Table 3.

[2] = target: T2, MAO B (Homo sapiens, UniProt P27338); assay: MAO B inhibitory activity assay; type: biochemical; details: terpene at 0.5% (v/v) in Don Julio Añejo (40% ABV) minus in 40% ethanol
T2 sequence (P27338 1-520): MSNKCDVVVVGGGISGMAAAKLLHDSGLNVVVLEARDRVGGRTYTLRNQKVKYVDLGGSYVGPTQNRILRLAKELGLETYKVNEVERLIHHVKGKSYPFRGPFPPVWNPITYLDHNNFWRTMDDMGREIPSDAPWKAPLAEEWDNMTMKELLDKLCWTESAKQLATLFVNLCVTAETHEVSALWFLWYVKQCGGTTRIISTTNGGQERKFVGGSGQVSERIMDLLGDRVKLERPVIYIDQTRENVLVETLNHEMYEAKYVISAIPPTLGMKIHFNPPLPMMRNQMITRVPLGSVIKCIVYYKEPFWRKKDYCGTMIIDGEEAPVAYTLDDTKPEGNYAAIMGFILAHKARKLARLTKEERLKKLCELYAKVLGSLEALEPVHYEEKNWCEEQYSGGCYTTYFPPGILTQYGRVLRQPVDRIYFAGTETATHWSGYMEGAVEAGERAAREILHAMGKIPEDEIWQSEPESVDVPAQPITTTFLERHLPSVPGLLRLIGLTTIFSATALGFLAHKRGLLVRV
Protocol: as §1

Molecule | Δ % Inhibition MAO A (DJA + terpene) − (ETOH + terpene) [1] [%] | Δ % Inhibition MAO B (DJA + terpene) − (ETOH + terpene) [2] [%]
CC(C)=CCCC(C)=CC=O [citral] | 0 | 2
C=CCc1ccc(O)c(OC)c1 [eugenol] | 1 | 8
Geramol | 4 | 9

Continued, values first:

Δ % Inhibition MAO A (DJA + terpene) − (ETOH + terpene) [1] [%] | Δ % Inhibition MAO B (DJA + terpene) − (ETOH + terpene) [2] [%] | Molecule
1 | 9 | CC1=CCC(=C(C)C)CC1 [terpinolene]
9 | 20 | C=C(C)[C@@H]1CCC2=CCC[C@@H](C)[C@]2(C)C1 [valencene]
5 | 11 | C=CC(=C)CCC=C(C)C [β-myrcene]
